Laboratory results as given in patent US20250325517A1, “ORAL DOSAGE FORMS OF ELRAGLUSIB” (Actuate Therapeutics, Inc., priority 2022, published 2025).
Where “and” joins values, the source holds several entries; their conditions need not be identical. Identical values can stand only once. Like-named read-outs stand apart in the source and are kept apart here. Marks after values point to notes of the source that are not given here.

Assay: Phase 1 crossover PK study: oral solution fed/fasted vs IV infusion in healthy subjects
Type: in vivo, human
Conditions: for bioavailability: dose increasing from 180 mg to 320 mg
Protocol: This pharmacokinetic (PK) study in healthy subjects was conducted to characterize and compare the PK parameters in plasma following a single intravenous (IV) dose of Elraglusib Injection, Elraglusib Oral Solution after fasting, and Elraglusib Oral Solution after a high-fat meal (fed). The study was intended to assess the potential feasibility of an oral formulation of elraglusib based on systemic exposure being within the biologically active range. In clinical studies conducted to date, elraglusib Injection (10 mg/mL) is administered IV once or twice per week over multiple hours, which requires a significant amount of time and resources by both patients and site personnel. […] See Example 3 above.
The route of administration is by IV infusion after diluting elraglusib for injection with 0.9% Sodium Chloride Injection.
It is a clear, red solution, free of visible particulate matter and a low bioburden liquid dosage form that is self-preserving against microbial growth.
Subjects received a single 3.3 mg/kg dose of each of the following in a randomly assigned order separated by a 2-week period.
During the study, the high fat meal was administered over a period of under 30 minutes (in almost all cases, 28 minutes).
Elraglusib Injection (10 mg/mL) administered as an IV infusion over 60 minutes (concentration in mg/mL and infusion rate in mL/kg/hour could vary depending on the subject's body weight).
PK parameters including AUC, Cmax, Tmax, and t1/2 were analyzed by standard non-compartmental analysis (NCA) methods following each of the elraglusib doses. Log transformed Cmax and AUC parameters in subjects having adequate PK data following at least 1 of the oral and IV doses were used to assess the relative bioavailability of the oral dose (fed and/or fasted) compared to the IV dose.
All efforts were made to obtain the PK samples at the scheduled nominal times relative to dosing. PK samples were assayed using validated analytical methods.

[1] = oral 3.3 mg/kg fasted state, human plasma
[2] = oral 3.3 mg/kg fed state, human plasma
[3] = oral fasted vs IV infusion, 3.3 mg/kg
[4] = oral fed vs IV infusion, 3.3 mg/kg
[5] = oral fed vs oral fasted, 3.3 mg/kg

A Tmax (human, plasma, po, 3.3 mg/kg, oral 3.3 mg/kg fasted state, human plasma, read-out: Tmax Median) of 2 h, a half-life (human, plasma, po, 3.3 mg/kg, oral 3.3 mg/kg fasted state, human plasma, read-out: t1/2 Arithmetic Mean (converted)) of 16.4 h and a half-life (human, plasma, po, 3.3 mg/kg, oral 3.3 mg/kg fasted state, human plasma, read-out: t1/2 GMean (converted)) of 15.6 h were found for `Cn1cc(C2=C(c3coc4ccc(F)cc34)C(=O)NC2=O)c2cc3c(cc21)OCO3` [elraglusib, 3-(5-fluorobenzofuran-3-yl)-4-(5-methyl-5H-[1,3]dioxolo[4,5-f]indol-7-yl)-1H-pyrrole-2,5-dione] in this work. It also gave a half-life (human, plasma, po, 3.3 mg/kg, oral 3.3 mg/kg fasted state, human plasma, read-out: t1/2 Median (converted)) of 18.2 h, an AUC (human, plasma, po, 3.3 mg/kg, oral 3.3 mg/kg fed state, human plasma, read-out: AUC24 Arithmetic Mean) of 3930 ng·h/mL and an AUC (human, plasma, po, 3.3 mg/kg, oral 3.3 mg/kg fed state, human plasma, read-out: AUC24 GMean) of 3420 ng·h/mL. The AUC (human, plasma, po, 3.3 mg/kg, oral 3.3 mg/kg fed state, human plasma, read-out: AUC24 Median) was 3990 ng·h/mL, the AUC (human, plasma, po, 3.3 mg/kg, oral 3.3 mg/kg fed state, human plasma, read-out: AUC48 Arithmetic Mean) was 4550 ng·h/mL and the AUC (human, plasma, po, 3.3 mg/kg, oral 3.3 mg/kg fed state, human plasma, read-out: AUC48 GMean) was 3980 ng·h/mL. It also gave an AUC (human, plasma, po, 3.3 mg/kg, oral 3.3 mg/kg fed state, human plasma, read-out: AUC48 Median) of 4440 ng·h/mL, an AUC (human, plasma, po, 3.3 mg/kg, oral 3.3 mg/kg fed state, human plasma, read-out: AUC72 Arithmetic Mean) of 4780 ng·h/mL and an AUC (human, plasma, po, 3.3 mg/kg, oral 3.3 mg/kg fed state, human plasma, read-out: AUC72 GMean) of 4160 ng·h/mL. It also gave an AUC (human, plasma, po, 3.3 mg/kg, oral 3.3 mg/kg fed state, human plasma, read-out: AUC72 Median) of 4600 ng·h/mL, an AUC (human, plasma, po, 3.3 mg/kg, oral 3.3 mg/kg fed state, human plasma, read-out: AUC96 Arithmetic Mean) of 4890 ng·h/mL and an AUC (human, plasma, po, 3.3 mg/kg, oral 3.3 mg/kg fed state, human plasma, read-out: AUC96 GMean) of 4250 ng·h/mL. It also gave an AUC (human, plasma, po, 3.3 mg/kg, oral 3.3 mg/kg fed state, human plasma, read-out: AUC96 Median) of 4730 ng·h/mL, an AUC(0-t) (human, plasma, po, 3.3 mg/kg, oral 3.3 mg/kg fed state, human plasma, read-out: AUClast Arithmetic Mean) of 4890 ng·h/mL and an AUC(0-t) (human, plasma, po, 3.3 mg/kg, oral 3.3 mg/kg fed state, human plasma, read-out: AUClast GMean) of 4250 ng·h/mL. The AUC(0-t) (human, plasma, po, 3.3 mg/kg, oral 3.3 mg/kg fed state, human plasma, read-out: AUClast Median) was 4730 ng·h/mL, the AUC(0-inf) (human, plasma, po, 3.3 mg/kg, oral 3.3 mg/kg fed state, human plasma, read-out: AUC∞ Arithmetic Mean) was 5000 ng·h/mL and the AUC(0-inf) (human, plasma, po, 3.3 mg/kg, oral 3.3 mg/kg fed state, human plasma, read-out: AUC∞ GMean) was 4330 ng·h/mL. For the same compound, the AUC(0-inf) (human, plasma, po, 3.3 mg/kg, oral 3.3 mg/kg fed state, human plasma, read-out: AUC∞ Median) was 5020 ng·h/mL, the CL/F (human, plasma, po, 3.3 mg/kg, oral 3.3 mg/kg fed state, human plasma, read-out: CL/F Arithmetic Mean (converted)) was 15.1 mL/min/kg and the CL/F (human, plasma, po, 3.3 mg/kg, oral 3.3 mg/kg fed state, human plasma, read-out: CL/F GMean (converted)) was 12.7 mL/min/kg. It also gave a CL/F (human, plasma, po, 3.3 mg/kg, oral 3.3 mg/kg fed state, human plasma, read-out: CL/F Median (converted)) of 11 mL/min/kg, a Cmax (human, plasma, po, 3.3 mg/kg, oral 3.3 mg/kg fed state, human plasma, read-out: Cmax Arithmetic Mean) of 592 ng/mL and a Cmax (human, plasma, po, 3.3 mg/kg, oral 3.3 mg/kg fed state, human plasma, read-out: Cmax GMean) of 474 ng/mL. It also gave a Cmax (human, plasma, po, 3.3 mg/kg, oral 3.3 mg/kg fed state, human plasma, read-out: Cmax Median) of 507 ng/mL, a Tmax (human, plasma, po, 3.3 mg/kg, oral 3.3 mg/kg fed state, human plasma, read-out: Tmax Arithmetic Mean) of 5.34 h and a Tmax (human, plasma, po, 3.3 mg/kg, oral 3.3 mg/kg fed state, human plasma, read-out: Tmax GMean) of 5.02 h. For the same compound, the Tmax (human, plasma, po, 3.3 mg/kg, oral 3.3 mg/kg fed state, human plasma, read-out: Tmax Median) was 5 h, the Vd/F (human, plasma, po, 3.3 mg/kg, oral 3.3 mg/kg fed state, human plasma, read-out: Vz/F GMean) was 20.9 L/kg and 1530 L and the half-life (human, plasma, po, 3.3 mg/kg, oral 3.3 mg/kg fed state, human plasma, read-out: t1/2 Arithmetic Mean (converted)) was 20.8 h. It also gave a half-life (human, plasma, po, 3.3 mg/kg, oral 3.3 mg/kg fed state, human plasma, read-out: t1/2 GMean (converted)) of 19 h, a half-life (human, plasma, po, 3.3 mg/kg, oral 3.3 mg/kg fed state, human plasma, read-out: t1/2 Median (converted)) of 21.2 h and an AUC(0-t) (human, plasma, po, 3.3 mg/kg, oral 3.3 mg/kg, Fasted, read-out: AUClast LS Means) of 1460 ng·h/mL. The AUC(0-inf) (human, plasma, po, 3.3 mg/kg, oral 3.3 mg/kg, Fasted, read-out: AUC∞ LS Means) was 1480 ng·h/mL, the Cmax (human, plasma, po, 3.3 mg/kg, oral 3.3 mg/kg, Fasted, read-out: Cmax LS Means) was 133 ng/mL and the AUC(0-t) (human, plasma, po, 3.3 mg/kg, oral 3.3 mg/kg, Fed, read-out: AUClast LS Means) was 4250 ng·h/mL. For the same compound, the AUC(0-inf) (human, plasma, po, 3.3 mg/kg, oral 3.3 mg/kg, Fed, read-out: AUC∞ LS Means) was 4330 ng·h/mL, the Cmax (human, plasma, po, 3.3 mg/kg, oral 3.3 mg/kg, Fed, read-out: Cmax LS Means) was 474 ng/mL and the bioavailability (human, plasma, po, human, fasting, read-out: oral bioavailability, FAUC∞ based regression) was 14 to 24%. The bioavailability (human, plasma, po, human, fasting, read-out: oral bioavailability, FCmax based regression) was 4 to 16%, the bioavailability (human, plasma, po, human, fed state, read-out: oral bioavailability, FAUC∞ based regression) was 41 to 71% and the bioavailability (human, plasma, po, human, fed state, read-out: oral bioavailability, FCmax based regression) was 16 to 52%. The “% extrap Arithmetic Mean” value [1] was 1.518%, the “% extrap GMean” value [1] was 1.219% and the “% extrap Median” value [1] was 1.45%. The “AUC∞/Dose Arithmetic Mean” value [1] was 7.224 ng·h/mL/mg, the “AUC∞/Dose GMean” value [1] was 6.128 ng·h/mL/mg and the “AUC∞/Dose Median” value [1] was 5.77 ng·h/mL/mg. The “Clast Arithmetic Mean” value [1] was 1.158 ng/mL, the “Clast GMean” value [1] was 0.8024 ng/mL and the “Clast Median” value [1] was 0.719 ng/mL. For the same compound, the “Cmax/Dose Arithmetic Mean” value [1] was 0.6705 ng/mL/mg, the “Cmax/Dose GMean” value [1] was 0.5482 ng/mL/mg and the “Cmax/Dose Median” value [1] was 0.622 ng/mL/mg. The “R^2 Arithmetic Mean” value [1] was 0.9926 #, the “R^2 GMean” value [1] was 0.9925 # and the “R^2 Median” value [1] was 0.9962 #. The “λZ Arithmetic Mean” value [1] was 0.04754 h⁻¹, the “λZ GMean” value [1] was 0.04443 h⁻¹ and the “λZ Median” value [1] was 0.0381 h⁻¹. For the same compound, the “% extrap Arithmetic Mean” value [2] was 1.865%, the “% extrap GMean” value [2] was 1.301% and the “% extrap Median” value [2] was 1.73%. The “AUC∞/Dose Arithmetic Mean” value [2] was 20.18 ng·h/mL/mg, the “AUC∞/Dose GMean” value [2] was 17.90 ng·h/mL/mg and the “AUC∞/Dose Median” value [2] was 19.2 ng·h/mL/mg. The “Clast Arithmetic Mean” value [2] was 3.055 ng/mL, the “Clast GMean” value [2] was 2.053 ng/mL and the “Clast Median” value [2] was 2.03 ng/mL. The “Cmax/Dose Arithmetic Mean” value [2] was 2.340 ng/mL/mg, the “Cmax/Dose GMean” value [2] was 1.958 ng/mL/mg and the “Cmax/Dose Median” value [2] was 2.11 ng/mL/mg. The “R^2 Arithmetic Mean” value [2] was 0.9928 #, the “R^2 GMean” value [2] was 0.9928 # and the “R^2 Median” value [2] was 0.9963 #. The “λZ Arithmetic Mean” value [2] was 0.04026 h⁻¹, the “λZ GMean” value [2] was 0.03648 h⁻¹ and the “λZ Median” value [2] was 0.0327 h⁻¹. For the same compound, the “Relative bioavailability, Ratio (%) Fasted/IV, AUClast” value [3] was 17.11%, the “Relative bioavailability, Ratio (%) Fasted/IV, AUC∞” value [3] was 17.15% and the “Relative bioavailability, Ratio (%) Fasted/IV, Cmax” value [3] was 7.62%. The “Relative bioavailability, Ratio (%) Fed/IV, AUClast” value [4] was 50.75%, the “Relative bioavailability, Ratio (%) Fed/IV, AUC∞” value [4] was 51.06% and the “Relative bioavailability, Ratio (%) Fed/IV, Cmax” value [4] was 27.24%. The “Relative bioavailability, Ratio (%) Fed/Fasted, AUClast” value [5] was 291.00%, the “Relative bioavailability, Ratio (%) Fed/Fasted, AUC∞” value [5] was 292.05% and the “Relative bioavailability, Ratio (%) Fed/Fasted, Cmax” value [5] was 357.10%. The concentration at 96 h (plasma, other: oral solution (fed and fasted) and IV infusion, 3.3 mg/kg, human, individual subjects, across treatments, read-out: quantifiable plasma concentrations at 96 hours post-dose) was 0.273 to 7.18 ng/mL.
